Where a SMILES comes first, the peptide text is derived from it. [ ]: non-standard residue; d: D form. The star is where a group is joined. Dolaproine = CO[C@@H]([C@@H]1CCCN1)[C@@H](C)C(=O)O; Dil = CC[C@H](C)[C@H](NC)[C@@H](CC(=O)O)OC; X1 = C[C@@H](N*)[C@@H](O)c1ccccc1; NMeV = CN[C@H](C(=O)O)C(C)C
Legend:
[1] = tested on: human colon carcinoma cell line HT29 wt; assay: Antiproliferative effect on the HT29 wt cell line (MTT assay); type: cell-based; settings: incubation 48 h to 96 h
Experimental: B-1. Determination of the Antiproliferative Effect on the HT29 Wt Cell Line:
A defined cell count of the human colon carcinoma cell line HT29 wt (wild type) was sown in a 96-well microtiter plate in whole medium (10% FCS-RPMI) (2500 cells/well) and incubated overnight at 37° C./5% CO2. After 18 hours, the inoculation medium was replaced by fresh medium with 10% FCS. The treatment started with addition of the respective test substance. Of the substances to be investigated, dose-effect curves were determined in a concentration range of 10^−5 M to 10^−14 M (1:10 dilution series). Incubation times of 48 h to 96 h were selected. Proliferation was detected with the help of the MTT assay (ATCC, Manassas, Va., USA, catalog no. 30-1010K). After the end of the selected incubation time, the MTT reagent was incubated with the cells for 4 h before lysis of the cells was performed overnight by adding the detergent. The dye that was formed was detected at 570 nm. The proliferation with otherwise identically treated cells but not with the test substance was defined as the 100% value. The data obtained from this test represents triple determinations, and at least two independent experiments were performed.

[2] = Cell permeability, flux assay using Caco-2 cells; type: in vitro ADME; settings: human; Caco-2 flux assay, basal to apical, 2 h incubation
Experimental: (§1) B-4. Determination of Cell Permeability:
(§2) The cell permeability of a substance can be analyzed by in vitro testing in a flux assay using Caco-2 cells [M. D. Troutman and D. R. Thakker, Pharm. Res. 20 (8), 1210-1224 (2003)]. To do so, the cells were cultured for 15-16 days on 24-hole filter plates. To determine the permeation, the respective test substance was applied to the cells either apically (A) or basally (B) in a HEPES buffer and incubated for 2 h. After 0 h and after 2 h, samples were taken from the cis- and trans-compartments. The samples were separated by HPLC (Agilent 1200, Böblingen, Germany) using reverse phase columns. The HPLC system was coupled via a turbo ion spray interface to an API 4000 triple quadrupole mass spectrometer (Applied Biosystems Applera, Darmstadt, Germany). The permeability was evaluated on the basis of a Papp value, which was calculated using the equation published by Schwab et al. [D. Schwab et al., J. Med. Chem. 46, 1717-1725 (2003)]. A substance was classified as being actively transported if the ratio of Papp (B−A) to Papp (A−B) was >2 or <0.5.
(§3) The permeability of B to A [Papp (B−A)] is of crucial importance for toxophores that are released intracellularly. The lower this permeability, the longer is the dwell time of the substance in the cell after intracellular release and thus also the time available for an interaction with the biochemical target (here: tubulin).

Caco-2 cells = assay: Cell permeability, flux assay using Caco-2 cells; type: in vitro ADME; settings: Caco-2 flux assay, basal to apical, 2 h incubation
Experimental: as §1, §2, §3

[3] = Homo sapiens, HT-29, HT29 wt cells

`CC[C@H](C)[C@@H]([C@@H](CC(=O)N1CCC[C@H]1[C@H](OC)[C@@H](C)C(=O)N[C@H](/C=C\Cc1ccccc1)Cc1ccccc1)OC)N(C)C(=O)[C@@H](NC(=O)[C@H](C(C)C)N(C)CCCC(=O)O)C(C)C` [Example 1, N-(3-Carboxypropyl)-N-methyl-L-valyl-N-[(3R,4S,5S)-1-{(2S)-2-[(1R,2R)-3-{[(2S,3Z)-1,5-diphenylpent-3-en-2-yl]amino}-1-methoxy-2-methyl-3-oxopropyl]pyrrolidin-1-yl}-3-methoxy-5-methyl-1-oxoheptan-4-yl]-N-methyl-L-valinamide] showed an IC50 [1, 3] of 15 nM.

In the case of `CC[C@H](C)[C@@H]([C@@H](CC(=O)N1CCC[C@H]1[C@H](OC)[C@@H](C)C(=O)N[C@H](/C=C\c1ccccc1)Cc1ccccc1)OC)N(C)C(=O)[C@@H](NC(=O)[C@H](C(C)C)N(C)CCCC(=O)O)C(C)C` [Example 2, N-(3-Carboxypropyl)-N-methyl-L-valyl-N-[(3R,4S,5S)-1-{(2S)-2-[(1R,2R)-3-{[(2S,3Z)-1,4-diphenylbut-3-en-2-yl]amino}-1-methoxy-2-methyl-3-oxopropyl]pyrrolidin-1-yl}-3-methoxy-5-methyl-1-oxoheptan-4-yl]-N-methyl-L-valinamide], the Papp B→A at 2 h [2] is reported as 15.7 ×10⁻⁶ cm/s and the IC50 [1, 3] is reported as 3.3 nM.

For `CC[C@H](C)[C@@H]([C@@H](CC(=O)N1CCC[C@H]1[C@H](OC)[C@@H](C)C(=O)N[C@H](/C=C/c1ccccc1)Cc1ccccc1)OC)N(C)C(=O)[C@@H](NC(=O)[C@H](C(C)C)N(C)CCCC(=O)O)C(C)C` [Example 3, N-(3-Carboxypropyl)-N-methyl-L-valyl-N-[(3R,4S,5S)-1-{(2S)-2-[(1R,2R)-3-{[(2S,3E)-1,4-diphenylbut-3-en-2-yl]amino}-1-methoxy-2-methyl-3-oxopropyl]pyrrolidin-1-yl}-3-methoxy-5-methyl-1-oxoheptan-4-yl]-N-methyl-L-valinamide], the Papp B→A at 2 h [2] was 17.9 ×10⁻⁶ cm/s and the IC50 [1, 3] was 0.3 nM.

`CC[C@H](C)[C@@H]([C@@H](CC(=O)N1CCC[C@H]1[C@H](OC)[C@@H](C)C(=O)N[C@@H](Cc1ccccc1)CS(=O)(=O)Cc1ccccc1)OC)N(C)C(=O)[C@@H](NC(=O)[C@H](C(C)C)N(C)CCCC(=O)O)C(C)C` [Example 4] showed a Papp B→A at 2 h [2] of 1.9 ×10⁻⁶ cm/s and an IC50 [1, 3] of 1.1 nM.

With `CC[C@H](C)[C@@H]([C@@H](CC(=O)N1CCC[C@H]1[C@H](OC)[C@@H](C)C(=O)N[C@@H](Cc1ccccc1)c1nnc(-c2ccccc2)o1)OC)N(C)C(=O)[C@@H](NC(=O)[C@H](C(C)C)N(C)CCCC(=O)O)C(C)C` [Example 5, N-(3-Carboxypropyl)-N-methyl-L-valyl-N-[(3R,4S,5S)-3-methoxy-1-{(2S)-2-[(1R,2R)-1-methoxy-2-methyl-3-oxo-3-{[(1S)-2-phenyl-1-(5-phenyl-1,3,4-oxadiazol-2-yl)ethyl]amino}propyl]pyrrolidin-1-yl}-5-methyl-1-oxoheptan-4-yl]-N-methyl-L-valinamide] the Papp B→A at 2 h [2] was 2.9 ×10⁻⁶ cm/s and the IC50 [1, 3] was 0.1 nM.

`CC[C@H](C)[C@@H]([C@@H](CC(=O)N1CCC[C@H]1[C@H](OC)[C@@H](C)C(=O)N[C@H](Cc1ccccc1)c1nnc(-c2ccccc2)o1)OC)N(C)C(=O)[C@@H](NC(=O)[C@H](C(C)C)N(C)CCCC(=O)O)C(C)C` [Example 6, N-(3-Carboxypropyl)-N-methyl-L-valyl-N-[(3R,4S,5S)-3-methoxy-1-{(2S)-2-[(1R,2R)-1-methoxy-2-methyl-3-oxo-3-{[(1R)-2-phenyl-1-(5-phenyl-1,3,4-oxadiazol-2-yl)ethyl]amino}propyl]pyrrolidin-1-yl}-5-methyl-1-oxoheptan-4-yl]-N-methyl-L-valinamide] showed a Papp B→A at 2 h [2] of 4.5 ×10⁻⁶ cm/s and an IC50 [1, 3] of 0.1 nM.

Molecule `CC[C@H](C)[C@@H]([C@@H](CC(=O)N1CCC[C@H]1[C@H](OC)[C@@H](C)C(=O)NCCc1c[nH]c2ccccc12)OC)N(C)C(=O)[C@@H](NC(=O)[C@H](C(C)C)N(C)CCCC(=O)O)C(C)C` [Example 7, N-(3-Carboxypropyl)-N-methyl-L-valyl-N-[(3R,4S,5S)-1-{(2S)-2-[(1R,2R)-3-{[2-(1H-indol-3-yl)ethyl]amino}-1-methoxy-2-methyl-3-oxopropyl]pyrrolidin-1-yl}-3-methoxy-5-methyl-1-oxoheptan-4-yl]-N-methyl-L-valinamide] has a Papp B→A at 2 h [2] of 1.1 ×10⁻⁶ cm/s.

`CC[C@H](C)[C@@H]([C@@H](CC(=O)N1CCC[C@H]1[C@H](OC)[C@@H](C)C(=O)NCCc1ccccc1)OC)N(C)C(=O)[C@@H](NC(=O)[C@H](C(C)C)N(C)CCCC(=O)O)C(C)C` [Example 8, N-(3-Carboxypropyl)-N-methyl-L-valyl-N-[(3R,4S,5S)-3-methoxy-1-{(2S)-2-[(1R,2R)-1-methoxy-2-methyl-3-oxo-3-[(2-phenylethyl)amino]propyl}pyrrolidin-1-yl}-5-methyl-1-oxoheptan-4-yl]-N-methyl-L-valinamide] gave a Papp B→A at 2 h [2] of 1 ×10⁻⁶ cm/s and an IC50 [1, 3] of 0.5 nM.

`CC[C@H](C)[C@@H]([C@@H](CC(=O)N1CCC[C@H]1[C@H](OC)[C@@H](C)C(=O)N[C@H](C)[C@@H](O)c1ccccc1)OC)N(C)C(=O)[C@@H](NC(=O)[C@H](C(C)C)N(C)CCCC(=O)O)C(C)C` [Example 9, N-(3-Carboxypropyl)-N-methyl-L-valyl-N-[(3R,4S,5S)-1-{(2S)-2-[(1R,2R)-3-{[(1S,2R)-1-hydroxy-1-phenylpropan-2-yl]amino}-1-methoxy-2-methyl-3-oxopropyl]pyrrolidin-1-yl}-3-methoxy-5-methyl-1-oxoheptan-4-yl]-N-methyl-L-valinamide] showed a Papp B→A at 2 h [2] of 0.45 ×10⁻⁶ cm/s and an IC50 [1, 3] of 6 nM.

In the case of `CC[C@H](C)[C@@H]([C@@H](CC(=O)N1CCC[C@H]1[C@H](OC)[C@@H](C)C(=O)N[C@H](/C=C/c1ccc(C(=O)O)cc1)Cc1ccccc1)OC)N(C)C(=O)[C@@H](NC(=O)[C@H](C(C)C)N(C)CCCC(=O)O)C(C)C` [Example 11], the Papp B→A at 2 h [2] is reported as 0.2 ×10⁻⁶ cm/s and the IC50 [1, 3] is reported as 4.5 nM.

For `CC[C@H](C)[C@@H]([C@@H](CC(=O)N1CCC[C@H]1[C@H](OC)[C@@H](C)C(=O)N[C@H](C)[C@@H](O)c1ccccc1)OC)N(C)C(=O)[C@@H](NC(=O)[C@@H](NC)C(C)C)C(C)C` [MMAE, monomethylauristatin E, reference compound] (H-[NMeV]V[Dil][Dolaproine]-X1), the “Papp (B-A)” value (Caco-2 cells) was 8.9 ×10⁻⁶ cm/s.

In the case of `CC[C@H](C)[C@@H]([C@@H](CC(=O)N1CCC[C@H]1[C@H](OC)[C@@H](C)C(=O)N[C@@H](Cc1ccccc1)C(=O)O)OC)N(C)C(=O)[C@@H](NC(=O)[C@@H](NC)C(C)C)C(C)C` [MMAF, monomethylauristatin F, reference compound] (H-[NMeV]V[Dil][Dolaproine]F-OH), the “Papp (B-A)” value (Caco-2 cells) is reported as 7.3 ×10⁻⁶ cm/s and the IC50 ([1]; HT29 wt cells) is reported as 10 nM.

— patent US9029406B2 (Seattle Genetics, Inc, priority 2011, dated 2015)
